As a reminder, the melting point is the temperature of the solid-liquid transition.

In the case of `O=C(O)CCc1nc2ccccc2c(=O)[nH]1`, the melting point is 239 to 241 °C.
For `Cn1cc(C#N)c(N)n1` the value was 119 to 121 °C; for `O=c1[nH]c(-c2ccc(F)cc2)cs1`, 179 to 181 °C.
The figure for `Cc1ccnc(-c2cccc(N)c2)n1` is 123 to 125 °C.
The figure for `O=C(O)c1sccc1S(=O)(=O)Nc1cccc2cn[nH]c12` is 236 to 238 °C; for `O=C(O)c1ccc(S(=O)(=O)N2CCOCC2)cc1` it is 287 to 289 °C; for `Cc1cc([N+](=O)[O-])ccc1S(=O)(=O)Cl` it is 69 to 71 °C.
Consider `CC(=O)N1CCCC(C(N)=O)C1` (configuration not stated), for which the melting point is 146 to 148 °C.
For `N#CCSc1cccc(C(=O)O)c1` the value was 144 to 146 °C; for `O=Cc1cn(-c2ccccc2)nc1-c1ccc(-c2nn(-c3ccccc3)cc2C=O)cc1`, 271 to 273 °C; for `Cc1nc(-c2ccccn2)nc(O)c1C`, 145 to 147 °C.
`O=C(O)C1CC(O)CN1C(=O)C12CC3CC(CC(C3)C1)C2` (configuration not stated) yielded a melting point of 206 to 208 °C.
The figure for `Nc1ncn(Cc2cccnc2)n1` is 112 to 114 °C.
The figure for `COC(=O)c1oc2ccccc2c1CBr` is 104 to 106 °C; for `CC(C)C(NC1=NS(=O)(=O)c2ccccc21)C(=O)O` (configuration not stated) it is 234 to 236 °C; for `O=C1CCOc2c(Cl)ccc(Cl)c21` it is 67 to 69 °C.
Consider `COc1ncc(Br)cc1CC#N`, for which the melting point is 39 to 41 °C.
For `COC(=O)c1nsnc1C(=O)O` the value was 82 to 84 °C; for `O=C(O)c1cccc(CN2CCCC2=O)c1`, 145 to 155 °C; for `NC1CCN(c2ccc(C(F)(F)F)cc2)C1=O` (configuration not stated), 132 to 134 °C.
For `c1ccc(NCC2CCCCC2)nc1` the value was 91 to 93 °C; for `CN(C)C=C(C#N)S(C)(=O)=O`, 129 to 131 °C.
For `CC(C)(C)OC(=O)NC1(C#N)CCCC1`, the melting point lay within 106 to 108 °C.
For `O=C(O)c1c[nH]c2ccccc2c1=O` the value was 250 to 252 °C; for `O=C(O)CSCc1cccc(Br)c1`, 70 to 80 °C; for `O=C(O)c1ccc(OCC2CC2)nc1`, 156 to 158 °C.
On to `NC(=O)c1ccc(C(=O)O)s1`, for which the melting point lay within 317 to 319 °C.
For `O=C(Nc1cccc(Cl)c1)OCC(F)(F)F` the value was 35 to 37 °C; for `CC(C)CN(C(=O)CCl)C1CCS(=O)(=O)C1` (configuration not stated), 150 to 155 °C.
Regarding `N#CCN1CCN(c2ncccn2)CC1`, the melting point lay within 99 to 101 °C.
As for `Cc1nc(O)c2cc(Br)ccc2n1`, the melting point lay in the range of 219 to 221 °C.
The figure for `O=Cc1sc(Cl)nc1Cl` is 38 to 42 °C; for `Nc1ccc(-c2noc(=O)[nH]2)cc1` it is 198 to 200 °C; for `Nn1c(S)nnc1-c1ccccc1Cl` it is 110 to 113 °C.
For `COC(=O)c1ccc(CC#N)cc1` the value was 55 to 58 °C; for `c1n[nH]cc1C1CCCCN1` (configuration not stated), 114 to 116 °C.
The figure for `C=CC(=O)Nc1cccc(C(F)(F)F)c1` is 79 to 81 °C; for `NCc1ccc(C(N)=O)nc1` it is 146 to 148 °C.
`Nc1ccc(N2CCCC2)c(S(=O)(=O)Nc2cccc(C(F)(F)F)c2)c1` had a melting point of 151 to 153 °C.
For `O=C(O)c1cc2ccccc2cc1NS(=O)(=O)c1ccc(F)cc1` the value was 203 to 205 °C.
In turn, `O=C(O)CNC(=O)Nc1ccccc1` gave a melting point of 196 to 198 °C.
`COc1ccc(COc2ccc(C#N)cn2)cc1`: the melting point fell in the range of 101 to 103 °C.
The compound `O=C(O)c1ccc2noc(-c3ccccc3)c2c1` registered a melting point of 242 to 244 °C.
In the case of `O=c1ccc2cc(S(=O)(=O)Cl)ccc2o1`, the melting point was 117 to 119 °C.
The compound `Nc1cccc(C(=O)N2CCc3ccccc32)c1` yielded a melting point of 125 to 127 °C.
For `NC(=O)CNS(=O)(=O)c1c[nH]c(C(=O)O)c1` the value was 239 to 241 °C.
As for `CC1(c2ccccc2)NC(=O)N(CC(=O)O)C1=O` (configuration not stated), the melting point was 170 to 172 °C.
The figure for `Nc1cnn(-c2ccccn2)c1` is 79 to 81 °C; for `Cc1ccc(C(=O)O)cc1S(=O)(=O)NCC#N` it is 212 to 214 °C; for `O=C(O)c1cc(Br)c2c(c1)OCO2` it is 251 to 253 °C.
For `ClCc1cc2ccccc2s1` the value was 49 to 51 °C; for `Cn1nc(CCl)[nH]c1=O`, 139 to 141 °C; for `CCOC(=O)C(=O)CC(=O)c1cccnc1`, 66 to 68 °C.
The figure for `CCCc1c(C(=O)O)cnn1C1CCCC1` is 113 to 115 °C.
`COc1ccc(C=CC(=O)O)cc1S(=O)(=O)N1CCCCC1` registered a melting point of 219 to 221 °C.
Regarding `NC(=S)N1CCS(=O)(=O)CC1`, the melting point was 233 to 235 °C.
The figure for `NS(=O)(=O)N1CCC(OC(=O)C(F)(F)F)CC1` is 126 to 128 °C; for `CCOC(=O)CSc1nnc(-c2cccs2)o1` it is 53 to 55 °C; for `CC(C)C(Br)C(=O)N1CCc2sccc2C1` (configuration not stated) it is 84 to 86 °C.
`NNC(=O)CCc1ccco1` registered a melting point of 72 to 74 °C.
The figure for `COC(=O)c1cccc(C(N)=S)c1` is 137 to 139 °C; for `Cc1noc(COCC(=O)O)n1` it is 76 to 78 °C; for `O=C(O)CNS(=O)(=O)c1ccc(Cl)c(Cl)c1` it is 127 to 129 °C.
For `CCNc1nc(C(=O)OCC)cs1` the value was 92 to 94 °C; for `CS(=O)(=O)N1CCN(c2ccc(N)cn2)CC1`, 178 to 180 °C.
For `NC1CCN(c2ccc(F)c(Cl)c2)C1=O` (configuration not stated) the value was 110 to 112 °C; for `O=C(O)c1ccc(-n2ccnc2)nn1`, 238 to 240 °C; for `NNC(=O)c1n[nH]c2c1CCCC2`, 176 to 178 °C.
For the compound `NC(=S)NCC(F)(F)F`, the melting point was in the range of 154 to 156 °C.
For `O=C1Nc2cc(F)cc(F)c2C1=O` the value was 229 to 231 °C; for `O=C(O)CCC(=O)c1csc2ccccc12`, 139 to 141 °C; for `O=S(=O)(Nc1ccc(F)c(F)c1)c1ccc(Cl)nc1`, 159 to 161 °C.
The figure for `O=C(O)c1cncs1` is 169 to 171 °C; for `CCOc1ccccc1OCCC(=O)O` it is 97 to 99 °C; for `Cc1ccc(C(C)(C)C(=O)O)cc1` it is 76 to 78 °C.
The figure for `CS(=O)(=O)Nc1nc2ccc(N)cc2s1` is 281 to 283 °C; for `CCN(CC)S(=O)(=O)c1ccc(C(=O)NCC(=O)O)cc1` it is 143 to 145 °C.
For `c1ccc(Nc2ccccn2)cc1`, the melting point was 78 to 82 °C.
In the case of `CC(C)[C@H](C(=O)O)N(C)C`, the melting point lay in the range of 154 to 156 °C.
For `O=C(CCl)Nc1cc2ccccc2cc1C(=O)O` the value was 223 to 225 °C; for `O=C(O)C1CCN(S(=O)(=O)c2cccc3c2N=S=N3)CC1`, 232 to 234 °C.
On to `O=[N+]([O-])c1cc(S(=O)(=O)Nc2nc3ccccc3nc2Cl)ccc1Cl`, for which the melting point is 180 to 182 °C.
Take `CCn1nnnc1S`: the melting point lay in the range of 18 to 20 °C.
For `Cc1cc(Sc2ncccn2)ccc1N` the value was 126 to 128 °C; for `Cn1cc(OCc2ccccc2)c(=O)cc1CO`, 221 to 223 °C.
The compound `Clc1nccn2nnnc12` registered a melting point of 99 to 101 °C.
For the compound `Cc1nc(N2CCCCC2)sc1C=O`, the melting point was in the range of 113 to 115 °C.
The compound `CCOC(=O)c1cnn(C)c1-c1ccccc1` displayed a melting point of 59 to 61 °C.
For `Sc1nnc(C2CC2)n1Cc1ccco1` the value was 260 to 262 °C.
For `NCc1cnn(-c2ccc(F)cc2F)c1` the value was 49 to 51 °C; for `CCc1ccc(Nc2nnc(S)s2)cc1`, 151 to 153 °C; for `O=C(O)c1ccnc(C2CC2)n1`, 218 to 220 °C.
`N#Cc1cc([N+](=O)[O-])ccc1O` came in with a melting point of 196 to 198 °C.
For `O=C(O)c1nnn(-c2ccccc2F)c1C(F)(F)F` the value was 133 to 135 °C; for `CC(C)CCOc1ccc(C(=O)NN)cc1`, 108 to 110 °C; for `NC(=O)c1ccc(F)c(N)c1`, 137 to 139 °C.
For `CC(=O)N1CCCC(C(=O)O)C1` (configuration not stated) the value was 129 to 131 °C.
For `CC(C)c1c(C(=O)O)nnn1-c1ccc(F)cc1F` the value was 158 to 160 °C.
With `Cc1noc(N)c1C(=O)O`, the melting point is 150 to 154 °C.
With `COC(=O)CCNc1ccc(F)cc1[N+](=O)[O-]`, the melting point fell in the range of 76 to 78 °C.
For `Cc1nc(-c2cccc(Br)c2)ccc1C(=O)O` the value was 181 to 183 °C; for `CC(C)CCC(C)NC(=O)C1CSCN1` (configuration not stated), 77 to 79 °C; for `CN(C)C(=O)COc1ccccc1C=O`, 89 to 91 °C.
For `CS(=O)(=O)NCC(=O)O` the value was 174 to 176 °C.
As for `Nc1ccc(S(=O)(=O)Nc2ccccc2Cl)c(Cl)c1`, the melting point is 239 to 241 °C.
For `Nc1cccc(OCc2ccc(F)cc2)c1`, the melting point was 87 to 89 °C.
The figure for `Cc1ccccc1-c1nnc(S)n1N` is 199 to 201 °C.
For `CS(=O)(=O)CCCOc1cccc2c1CCC2O` (configuration not stated) the value was 77 to 79 °C; for `O=C(Cc1nc2ccccc2[nH]1)c1ccccc1`, 180 to 182 °C.
The figure for `Cc1nc(-c2ccccc2)c(N)s1` is 169 to 171 °C; for `O=C(Nc1ccc(O)cc1C(=O)O)OCc1ccccc1` it is 176 to 178 °C; for `Cc1ccc(C(=O)NCC(=O)O)cc1C` it is 160 to 162 °C.
In turn, `CC(Oc1ccc(F)cc1Br)C(=O)O` (configuration not stated) returned a melting point of 87 to 89 °C.
The figure for `Cc1cc(C#N)ccc1CO` is 66 to 68 °C; for `NC(=O)c1ccc(N)c(F)c1` it is 152 to 154 °C; for `CCc1cccc2c(C=O)c[nH]c12` it is 99 to 101 °C.
In the case of `Cc1cc(C)cc(NC(=O)CCl)c1`, the melting point is 141 to 143 °C.
`Nc1ccc(S(=O)(=O)Nc2cccc(F)c2)cc1`: the melting point lay within 168 to 170 °C.
For `COC(=O)C(=O)CC(=O)c1ccccc1C` the value was 59 to 61 °C; for `Cc1cc(Cl)cc(C)c1C=O`, 39 to 41 °C; for `O=C1Nc2c(F)ccc(Br)c2C1=O`, 274 to 276 °C.
The figure for `NNC(=O)CCc1ccc(S(=O)(=O)N2CCOCC2)cc1` is 128 to 130 °C.

The values above are taken from a melting point compilation (Tetko et al.).
